# Measurements published in PubChem BioAssay (NCI).
#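 Interpolation was linear, between the two tested concentrations surrounding the appropriate level; five concentrations were tested over 48 hours in 96-well plates. GI50: concentration for 50% inhibition of growth. TGI marks complete inhibition of growth.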
# Experiments:
# Assay in all cases: inhibition of tumour cell growth, NCI panel, 48 h
# 786-0 renal = test system: 786-0 renal
# A498 renal = test system: A498 renal
# A549 NSCLC = test system: A549 NSCLC
# ACHN renal = test system: ACHN renal
# BT-549 breast = test system: BT-549 breast
# CAKI-1 renal = test system: CAKI-1 renal
# CCRF-CEM leukemia = test system: CCRF-CEM leukemia
# COLO 205 colon = test system: COLO 205 colon
# DU-145 prostate = test system: DU-145 prostate
# EKVX NSCLC = test system: EKVX NSCLC
# HCC-2998 colon = test system: HCC-2998 colon
# HCT-116 colon = test system: HCT-116 colon
# HCT-15 colon = test system: HCT-15 colon
# HL-60(TB) leukemia = test system: HL-60(TB) leukemia
# HOP-62 NSCLC = test system: HOP-62 NSCLC
# HOP-92 NSCLC = test system: HOP-92 NSCLC
# HT29 colon = test system: HT29 colon
# IGROV1 ovarian = test system: IGROV1 ovarian
# K-562 leukemia = test system: K-562 leukemia
# KM12 colon = test system: KM12 colon
# LOX IMVI melanoma = test system: LOX IMVI melanoma
# M14 melanoma = test system: M14 melanoma
# MALME-3M melanoma = test system: MALME-3M melanoma
# MCF7 breast = test system: MCF7 breast
# MDA-MB-231 breast = test system: MDA-MB-231 breast
# MDA-MB-435 = test system: MDA-MB-435
# MOLT-4 leukemia = test system: MOLT-4 leukemia
# NCI-H226 lung = test system: NCI-H226 lung
# NCI-H23 lung = test system: NCI-H23 lung
# NCI-H460 lung = test system: NCI-H460 lung
# NCI-H522 lung = test system: NCI-H522 lung
# NCI/ADR-RES ovarian = test system: NCI/ADR-RES ovarian
# OVCAR-3 ovarian = test system: OVCAR-3 ovarian
# OVCAR-4 ovarian = test system: OVCAR-4 ovarian
# OVCAR-5 ovarian = test system: OVCAR-5 ovarian
# OVCAR-8 ovarian = test system: OVCAR-8 ovarian
# PC-3 prostate = test system: PC-3 prostate
# RPMI-8226 leukemia = test system: RPMI-8226 leukemia
# RXF 393 renal = test system: RXF 393 renal
# SF-268 CNS = test system: SF-268 CNS
# SF-295 CNS = test system: SF-295 CNS
# SF-539 CNS = test system: SF-539 CNS
# SK-MEL-2 melanoma = test system: SK-MEL-2 melanoma
# SK-MEL-28 melanoma = test system: SK-MEL-28 melanoma
# SK-MEL-5 melanoma = test system: SK-MEL-5 melanoma
# SK-OV-3 ovarian = test system: SK-OV-3 ovarian
# SN12C renal = test system: SN12C renal
# SNB-19 CNS = test system: SNB-19 CNS
# SNB-75 CNS = test system: SNB-75 CNS
# SR leukemia = test system: SR leukemia
# SW-620 colon = test system: SW-620 colon
# T-47D breast = test system: T-47D breast
# TK-10 renal = test system: TK-10 renal
# U251 CNS = test system: U251 CNS
# UACC-257 melanoma = test system: UACC-257 melanoma
# UACC-62 melanoma = test system: UACC-62 melanoma
# UO-31 renal = test system: UO-31 renal
# HS 578T breast = test system: HS 578T breast
structure (smiles),measurement,setting,value
O=[N+]([O-])c1cc([N+](=O)[O-])c(N2CCCC2)cc1NN=C(c1ccc(O)cc1)c1ccc(O)cc1,GI50,786-0 renal,6.88 µM
same,TGI,786-0 renal,19.8 µM
same,GI50,A498 renal,5.34 µM
same,TGI,A498 renal,16.7 µM
same,GI50,A549 NSCLC,3.82 µM
same,TGI,A549 NSCLC,16.4 µM
same,GI50,ACHN renal,2.31 µM
same,TGI,ACHN renal,11.7 µM
same,GI50,BT-549 breast,18.5 µM
same,TGI,BT-549 breast,75.3 µM
same,GI50,CAKI-1 renal,6.23 µM
same,TGI,CAKI-1 renal,21.1 µM
same,GI50,CCRF-CEM leukemia,2.17 µM
same,TGI,CCRF-CEM leukemia,21.5 µM
same,GI50,COLO 205 colon,3.79 µM
same,TGI,COLO 205 colon,15.5 µM
same,GI50,DU-145 prostate,7.43 µM
same,TGI,DU-145 prostate,20.2 µM
same,GI50,EKVX NSCLC,0.508 µM
same,TGI,EKVX NSCLC,23.9 µM
same,GI50,HCC-2998 colon,4.12 µM
same,TGI,HCC-2998 colon,14.5 µM
same,GI50,HCT-116 colon,4.54 µM
same,TGI,HCT-116 colon,16.5 µM
same,GI50,HCT-15 colon,3.98 µM
same,TGI,HCT-15 colon,15.9 µM
same,GI50,HL-60(TB) leukemia,7.89 µM
same,TGI,HL-60(TB) leukemia,37.5 µM
same,GI50,HOP-62 NSCLC,10.3 µM
same,TGI,HOP-62 NSCLC,24.5 µM
same,GI50,HOP-92 NSCLC,10.1 µM
same,TGI,HOP-92 NSCLC,26.4 µM
same,GI50,HT29 colon,3.41 µM
same,TGI,HT29 colon,14.5 µM
same,GI50,IGROV1 ovarian,3.96 µM
same,TGI,IGROV1 ovarian,16.9 µM
same,GI50,K-562 leukemia,2.35 µM
same,TGI,K-562 leukemia,21 µM
same,GI50,KM12 colon,3.51 µM
same,TGI,KM12 colon,14.1 µM
same,GI50,LOX IMVI melanoma,3.28 µM
same,TGI,LOX IMVI melanoma,14.6 µM
same,GI50,M14 melanoma,9.62 µM
same,TGI,M14 melanoma,22.1 µM
same,GI50,MALME-3M melanoma,14.9 µM
same,TGI,MALME-3M melanoma,35 µM
same,GI50,MCF7 breast,3.55 µM
same,TGI,MCF7 breast,20.1 µM
same,GI50,MDA-MB-231 breast,4.01 µM
same,TGI,MDA-MB-231 breast,16 µM
same,GI50,MDA-MB-435,2.52 µM
same,TGI,MDA-MB-435,14.4 µM
same,GI50,MOLT-4 leukemia,3.36 µM
same,TGI,MOLT-4 leukemia,> 100 µM
same,GI50,NCI-H226 lung,16.9 µM
same,TGI,NCI-H226 lung,45.8 µM
same,GI50,NCI-H23 lung,9.46 µM
same,TGI,NCI-H23 lung,23.3 µM
same,GI50,NCI-H460 lung,4.21 µM
same,TGI,NCI-H460 lung,15.9 µM
same,GI50,NCI-H522 lung,12.8 µM
same,TGI,NCI-H522 lung,45.6 µM
same,GI50,NCI/ADR-RES ovarian,13.6 µM
same,TGI,NCI/ADR-RES ovarian,37.9 µM
same,GI50,OVCAR-3 ovarian,2.41 µM
same,TGI,OVCAR-3 ovarian,7.65 µM
same,GI50,OVCAR-4 ovarian,4.03 µM
same,TGI,OVCAR-4 ovarian,40 µM
same,GI50,OVCAR-5 ovarian,17.2 µM
same,TGI,OVCAR-5 ovarian,30.9 µM
same,GI50,OVCAR-8 ovarian,9.86 µM
same,TGI,OVCAR-8 ovarian,60.5 µM
same,GI50,PC-3 prostate,6.07 µM
same,TGI,PC-3 prostate,> 100 µM
same,GI50,RPMI-8226 leukemia,3.78 µM
same,TGI,RPMI-8226 leukemia,24 µM
same,GI50,RXF 393 renal,3.12 µM
same,TGI,RXF 393 renal,12.8 µM
same,GI50,SF-268 CNS,2.99 µM
same,TGI,SF-268 CNS,12.6 µM
same,GI50,SF-295 CNS,1.48 µM
same,TGI,SF-295 CNS,5.36 µM
same,GI50,SF-539 CNS,12.4 µM
same,TGI,SF-539 CNS,24.8 µM
same,GI50,SK-MEL-2 melanoma,7.04 µM
same,TGI,SK-MEL-2 melanoma,24.3 µM
same,GI50,SK-MEL-28 melanoma,3.39 µM
same,TGI,SK-MEL-28 melanoma,13.8 µM
same,GI50,SK-MEL-5 melanoma,2.73 µM
same,TGI,SK-MEL-5 melanoma,15.3 µM
same,GI50,SK-OV-3 ovarian,7.44 µM
same,TGI,SK-OV-3 ovarian,19.8 µM
same,GI50,SN12C renal,10.1 µM
same,TGI,SN12C renal,23.3 µM
same,GI50,SNB-19 CNS,7.06 µM
same,TGI,SNB-19 CNS,21.6 µM
same,GI50,SNB-75 CNS,1.34 µM
same,TGI,SNB-75 CNS,6.4 µM
same,GI50,SR leukemia,5.98 µM
same,TGI,SR leukemia,30.9 µM
same,GI50,SW-620 colon,9.15 µM
same,TGI,SW-620 colon,21.2 µM
same,GI50,T-47D breast,0.681 µM
same,TGI,T-47D breast,4.76 µM
same,GI50,TK-10 renal,11.6 µM
same,TGI,TK-10 renal,35.8 µM
same,GI50,U251 CNS,4.81 µM
same,TGI,U251 CNS,18.3 µM
same,GI50,UACC-257 melanoma,13.6 µM
same,TGI,UACC-257 melanoma,26.9 µM
same,GI50,UACC-62 melanoma,5.82 µM
same,TGI,UACC-62 melanoma,19 µM
same,GI50,UO-31 renal,5.54 µM
same,TGI,UO-31 renal,18.5 µM
N#Cc1nc(-c2cccnc2)oc1N,TGI,786-0 renal,> 100 µM
same,TGI,A498 renal,> 100 µM
same,TGI,ACHN renal,> 100 µM
same,TGI,CAKI-1 renal,> 100 µM
same,TGI,CCRF-CEM leukemia,> 100 µM
same,TGI,COLO 205 colon,> 100 µM
same,TGI,DU-145 prostate,> 100 µM
same,TGI,EKVX NSCLC,> 100 µM
same,TGI,HCC-2998 colon,> 100 µM
same,TGI,HCT-116 colon,> 100 µM
same,TGI,HCT-15 colon,> 100 µM
same,TGI,HL-60(TB) leukemia,> 100 µM
same,TGI,HOP-62 NSCLC,> 100 µM
same,TGI,HOP-92 NSCLC,> 100 µM
same,TGI,HS 578T breast,> 100 µM
same,TGI,HT29 colon,> 100 µM
same,TGI,IGROV1 ovarian,> 100 µM
same,TGI,K-562 leukemia,> 100 µM
same,TGI,KM12 colon,> 100 µM
same,TGI,LOX IMVI melanoma,> 100 µM
same,TGI,MALME-3M melanoma,> 100 µM
same,TGI,MDA-MB-231 breast,> 100 µM
same,TGI,MDA-MB-435,> 100 µM
same,TGI,MOLT-4 leukemia,> 100 µM
same,TGI,NCI-H226 lung,> 100 µM
same,TGI,NCI-H460 lung,> 100 µM
same,TGI,NCI-H522 lung,> 100 µM
same,TGI,OVCAR-3 ovarian,> 100 µM
same,TGI,OVCAR-4 ovarian,> 100 µM
same,TGI,OVCAR-5 ovarian,> 100 µM
same,TGI,PC-3 prostate,> 100 µM
same,TGI,RPMI-8226 leukemia,> 100 µM
same,TGI,RXF 393 renal,> 100 µM
same,TGI,SF-268 CNS,> 100 µM
same,TGI,SK-MEL-2 melanoma,> 100 µM
same,TGI,SK-MEL-28 melanoma,> 100 µM
same,TGI,SK-MEL-5 melanoma,> 100 µM
same,TGI,SK-OV-3 ovarian,> 100 µM
same,TGI,SN12C renal,> 100 µM
same,TGI,SNB-19 CNS,> 100 µM
same,TGI,SR leukemia,> 100 µM
same,TGI,SW-620 colon,> 100 µM
same,TGI,TK-10 renal,> 100 µM
same,TGI,U251 CNS,> 100 µM
same,TGI,UACC-257 melanoma,> 100 µM
same,TGI,UACC-62 melanoma,> 100 µM
same,TGI,UO-31 renal,> 100 µM
